Measured values published in patent US12581252B2, “Substituted pyrrolo[3,4-b]pyridines as PI3K-α inhibitors” (Relay Therapeutics, Inc., priority 2020, dated 2026).

What follows are compounds tested against H1047R PIK3CA enzyme (Homo sapiens, UniProt P42336, H1047R) (assay: ADP-Glo Biochemical PIK3CA Kinase Assay).
H1047R PIK3CA enzyme, sequence (P42336 whole entry H1047R): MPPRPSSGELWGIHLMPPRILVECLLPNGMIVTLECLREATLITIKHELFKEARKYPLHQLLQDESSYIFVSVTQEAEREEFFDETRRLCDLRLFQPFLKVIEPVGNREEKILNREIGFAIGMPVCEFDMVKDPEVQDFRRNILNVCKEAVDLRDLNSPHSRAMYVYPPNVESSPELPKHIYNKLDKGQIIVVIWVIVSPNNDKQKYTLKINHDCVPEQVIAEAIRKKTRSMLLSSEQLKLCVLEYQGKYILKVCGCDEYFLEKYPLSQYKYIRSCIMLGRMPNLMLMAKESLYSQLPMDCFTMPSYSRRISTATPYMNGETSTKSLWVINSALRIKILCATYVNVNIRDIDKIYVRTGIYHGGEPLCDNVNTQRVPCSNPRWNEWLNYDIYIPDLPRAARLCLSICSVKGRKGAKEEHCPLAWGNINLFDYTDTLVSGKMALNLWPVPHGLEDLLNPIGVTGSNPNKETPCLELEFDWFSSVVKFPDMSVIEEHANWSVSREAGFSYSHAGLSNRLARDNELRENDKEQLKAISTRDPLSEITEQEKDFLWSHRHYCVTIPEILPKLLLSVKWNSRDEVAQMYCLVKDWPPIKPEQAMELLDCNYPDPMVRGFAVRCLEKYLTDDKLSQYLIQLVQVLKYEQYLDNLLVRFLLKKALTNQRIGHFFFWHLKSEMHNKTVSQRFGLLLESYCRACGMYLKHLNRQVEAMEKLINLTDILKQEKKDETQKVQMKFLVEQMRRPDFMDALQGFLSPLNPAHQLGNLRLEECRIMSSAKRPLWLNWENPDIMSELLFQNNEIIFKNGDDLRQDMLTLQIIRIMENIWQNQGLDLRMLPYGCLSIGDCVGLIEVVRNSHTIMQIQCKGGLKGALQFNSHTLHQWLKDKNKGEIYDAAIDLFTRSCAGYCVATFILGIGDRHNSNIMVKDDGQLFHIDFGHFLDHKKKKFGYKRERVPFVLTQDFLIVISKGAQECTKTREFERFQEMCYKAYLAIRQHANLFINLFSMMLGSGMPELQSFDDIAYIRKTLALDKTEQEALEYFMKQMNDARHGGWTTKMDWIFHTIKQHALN
H1047R PIK3CA enzyme, sequence (P27986 whole entry partner): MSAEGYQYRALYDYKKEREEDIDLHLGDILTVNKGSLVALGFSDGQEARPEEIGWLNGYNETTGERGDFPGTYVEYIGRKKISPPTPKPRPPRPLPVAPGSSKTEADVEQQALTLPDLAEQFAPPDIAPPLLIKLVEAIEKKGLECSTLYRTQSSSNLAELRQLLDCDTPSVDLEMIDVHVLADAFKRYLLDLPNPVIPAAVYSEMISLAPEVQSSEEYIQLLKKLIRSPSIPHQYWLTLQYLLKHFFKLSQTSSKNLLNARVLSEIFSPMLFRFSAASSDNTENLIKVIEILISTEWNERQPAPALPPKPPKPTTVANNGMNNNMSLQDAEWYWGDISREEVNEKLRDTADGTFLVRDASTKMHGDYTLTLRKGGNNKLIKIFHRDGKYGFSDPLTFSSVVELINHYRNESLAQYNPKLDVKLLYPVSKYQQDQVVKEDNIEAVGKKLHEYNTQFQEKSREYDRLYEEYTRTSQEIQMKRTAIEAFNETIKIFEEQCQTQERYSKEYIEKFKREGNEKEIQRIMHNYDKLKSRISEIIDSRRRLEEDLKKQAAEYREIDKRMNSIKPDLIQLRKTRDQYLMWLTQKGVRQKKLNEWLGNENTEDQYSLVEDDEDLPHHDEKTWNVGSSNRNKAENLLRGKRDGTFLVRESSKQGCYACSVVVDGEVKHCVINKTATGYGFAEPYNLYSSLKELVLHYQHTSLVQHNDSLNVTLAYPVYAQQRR

Row | Compound | IC50 [µM]
1 | N#CC1(n2cc(-c3cc(NC(=O)c4cc(F)cc(C(F)(F)F)c4)c4c(c3)C(=O)N[C@H]4c3cc(F)ccc3Cl)cn2)CC1 [Compound I-1886] | ≤ 0.1
2 | CC(C)(O)c1cc(NC(=O)N2CCc3ccccc32)c2c(c1)C(=O)N[C@H]2c1cc(F)ccc1Cl [Compound I-713] | ≤ 0.1
3 | O=C1N[C@H](c2cc(F)ccc2Cl)c2c(NC(=O)N3C[C@H](O)c4cc(F)ccc43)cc(-n3cccn3)cc21 (single isomer, unassigned) [Compound I-2367] | 1 to 10
4 | Cc1cccnc1C1NC(=O)c2cccc(NC(=O)c3csc4ccccc34)c21 (stereo not shown) [Compound I-49] | 1 to 10
5 | CC(C)[C@H](N)C(=O)N1C(=O)c2cc(-c3ccc4ncnn4c3)cc(NC(=O)c3cc(F)cc(C(F)(F)F)c3)c2C1c1cc(F)ccc1Cl (stereo partly shown) [Compound I-1343] | ≤ 0.1
6 | O=C1NC(c2cc(F)ccc2Cl)c2c(NC(=O)C3(c4cc(F)ccc4F)CCCC3)cc(Br)cc21 (stereo not shown) [Compound I-1819] | 10 to 100
7 | [2H]c1nc2ccc(-c3cc(NC(=O)c4cc(F)cc(C(F)(F)F)c4)c4c(c3)C(=O)N[C@@H]4c3cc(F)ccc3Cl)cn2n1 (stereo in doubt) [Compound I-1786] | 0.1 to 0.5
8 | CC#Cc1cc(-c2ccc3ncnn3c2)cc2c1C(c1cc(F)ccc1Cl)NC2=O (stereo not shown) [Compound I-1988] | 10 to 100
9 | O=C(Nc1cc(NC2=NC[C@H](C(F)(F)F)O2)cc2c1[C@@H](c1cc(F)ccc1Cl)NC2=O)c1cc(F)cc(C(F)(F)F)c1 (single isomer, unassigned) [Compound I-2325] | 1 to 10
10 | O=C(Nc1cccc(C(F)(F)F)c1)c1cccc2c1C(c1cc(F)ccc1Cl)NC2=O (stereo not shown) [Compound I-2189] | 1 to 10
11 | O=C(Nc1cc(-c2cc(F)c3ncnn3c2)cc2c1[C@@H](c1cc(F)ccc1Cl)NC2=O)c1cc(F)cc(C(F)(F)F)c1 [Compound I-1703] | 10 to 100
12 | N#C[C@H]1C[C@@H](c2cc(NC(=O)c3cc(F)cc(C(F)(F)F)c3)c3c(c2)C(=O)N[C@@H]3c2cc(F)ccc2Cl)C1 (single isomer, unassigned) [Compound I-1327] | ≤ 0.1
13 | O=C1NC(c2cc(F)ccc2Cl)c2c(NC(=O)C34CC5CC(C3)C(F)(F)C(C5)C4)cc(Br)cc21 (stereo not shown) [Compound I-1203] | 0.1 to 0.5
14 | O=C1NC(c2cc(F)ccc2Cl)c2c(NC(=O)N3CCc4ccc(OC(F)(F)F)cc43)cccc21 (stereo not shown) [Compound I-2480] | 1 to 10
15 | O=C(Nc1cc(Br)cc2c1[C@H](c1cc(F)ccc1Cl)NC2=O)N[C@]1(CC(F)(F)F)CCCOC1 (racemic) [Compound I-1949] | 10 to 100
16 | O=C(Nc1cc(OCc2cncnc2)cc2c1C(c1cc(F)ccc1Cl)NC2=O)c1cc(F)cc(C(F)(F)F)c1 (stereo not shown) [Compound I-1735] | ≤ 0.1
17 | O=C(Nc1cc(-c2cnc(C(F)(F)F)nc2)cc2c1C(c1cc(F)ccc1Cl)NC2=O)c1cc(F)cc(C(F)(F)F)c1 (stereo not shown) [Compound I-823] | ≤ 0.1
18 | N#Cc1cnn(-c2cc(NC(=O)N3C[C@H](O)c4cc(F)ccc43)c3c(c2)C(=O)N[C@H]3c2cc(F)ccc2Cl)c1 [Compound I-2403] | ≤ 0.1

Row | Compound | IC50 [µM]
19 | CC(O)C(CC(=O)Nc1cccc2c1C(c1cc(F)ccc1Cl)NC2=O)C(C)C(F)(F)F (stereo not shown) [Compound I-2198] | 10 to 100
20 | Nc1ncncc1-c1cc(NC(=O)c2cc(F)cc(C(F)(F)F)c2)c2c(c1)C(=O)NC2c1cc(F)ccc1Cl (stereo not shown) [Compound I-1106] | ≤ 0.1
21 | O=C1N[C@@H](c2cc(F)ccc2Cl)c2c(N[C@H]3CCOc4ccccc43)cc(Br)cc21 (racemic) [Compound I-2013] | 10 to 100
22 | CC(=O)N1CCC[C@H](Oc2cc(NC(=O)c3cc(F)cc(C(F)(F)F)c3)c3c(c2)C(=O)NC3c2cc(F)ccc2Cl)C1 (single isomer, unassigned) [Compound I-1525] | 0.1 to 0.5
23 | Cc1c(-c2cc(NC(=O)c3cc(F)cc(C(F)(F)F)c3)c3c(c2)C(=O)N[C@H]3c2cc(F)ccc2Cl)ccc2ncnn12 [Compound I-1876] | ≤ 0.1
24 | N#Cc1cnc2cnc(-c3cc(NC(=O)c4cc(F)cc(C(F)(F)F)c4)c4c(c3)C(=O)N[C@@H]4c3cc(F)ccc3Cl)cn12 [Compound I-1922] | 1 to 10
25 | Cn1cc(-c2cc(NC(=O)c3cc(F)cc(Cl)c3)c3c(n2)C(=O)N[C@@H]3c2cc(F)ccc2Cl)cn1 [Compound I-384] | 1 to 10
26 | COc1cnccc1-c1cc(NC(=O)c2cc(F)cc(Cl)c2)c2c(n1)C(=O)NC2c1cc(F)ccc1Cl (stereo not shown) [Compound I-505] | 0.1 to 0.5
27 | O=C(Nc1cc(Br)cc2c1[C@@H](c1cc(F)cc(F)c1Cl)NC2=O)c1cc(F)cc(C(F)(F)F)c1 [Compound I-806] | 0.5 to 1
28 | O=C(Nc1cccc2c1C(c1nc(C(F)(F)F)cs1)NC2=O)c1cc(F)cc(C(F)(F)F)c1 (stereo not shown) [Compound I-2330] | 10 to 100
29 | O=C(Nc1cc(CNC2CC(F)(F)C2)cc2c1C(c1cc(F)ccc1Cl)NC2=O)c1cc(F)cc(C(F)(F)F)c1 (stereo not shown) [Compound I-349] | ≤ 0.1
30 | O=C(Cc1n[nH]c2ccccc12)Nc1cc(Br)cc2c1C(c1cc(F)ccc1Cl)NC2=O (stereo not shown) [Compound I-955] | 10 to 100
31 | CS(=O)(=O)CCn1cc(-c2cc(NC(=O)c3cc(F)cc(C(F)(F)F)c3)c3c(c2)C(=O)NC3c2cc(F)ccc2Cl)cn1 (stereo not shown) [Compound I-1398] | ≤ 0.1
32 | O=C1NC(c2cc(F)ccc2Cl)c2c(NC(=O)N3CCNC(C(F)(F)F)C3)cccc21 (stereo not shown) [Compound I-2222] | 10 to 100
33 | CN1C[C@@H](COc2cc(NC(=O)c3cc(F)cc(C(F)(F)F)c3)c3c(c2)C(=O)N[C@@H]3c2cc(F)ccc2Cl)CC1=O (single isomer, unassigned) [Compound I-1523] | 1 to 10
34 | O=C(Nc1cc(-c2ccc3ncnn3c2)cc2c1[C@H](c1cc(F)ccc1Cl)NC2=O)c1cc(Cl)cc(Cl)c1 (stereo in doubt) [Compound I-1208] | ≤ 0.1
35 | NS(=O)(=O)c1cc(-c2ccc3ncnn3c2)cc2c1[C@@H](c1cc(F)ccc1Cl)NC2=O [Compound I-2100] | 10 to 100
36 | C[C@@H](CCC(F)(F)F)C(=O)Nc1cccc2c1[C@@H](c1cc(F)ccc1Cl)NC2=O [Compound I-2141] | 10 to 100

Results, then the compound that gave them:

Row | IC50 [µM] | Compound
37 | 10 to 100 | O=C(Nc1cccc2c1[C@H](C1CC1)NC2=O)c1cc(F)cc(C(F)(F)F)c1 (single isomer, unassigned) [Compound I-2221]
38 | ≤ 0.1 | O=C(Nc1cc(CC(O)C(F)(F)F)cc2c1C(c1cc(F)ccc1Cl)NC2=O)c1cc(F)cc(C(F)(F)F)c1 (stereo not shown) [Compound I-1200]
39 | ≤ 0.1 | CCC(=O)Nc1cc(NC(=O)c2cc(F)cc(C(F)(F)F)c2)c2c(c1)C(=O)NC2c1cc(F)ccc1Cl (stereo not shown) [Compound I-552]
40 | 1 to 10 | CC1(n2[nH]c(=O)c3cccc(NC(=O)c4cc(F)cc(C(F)(F)F)c4)c32)CCCCC1 [Compound I-857]
41 | 1 to 10 | CNc1cc(NC(=O)N2C[C@](O)(C(F)(F)F)c3cc(F)ccc32)c2c(c1C#N)C(=O)N[C@H]2c1cc(F)ccc1Cl (single isomer, unassigned) [Compound I-2608]
42 | 10 to 100 | O=C1NC(c2cc(F)ccc2Cl)c2c(NC3CCc4ccccc43)cc(Br)cc21 (stereo not shown) [Compound I-1852]
43 | ≤ 0.1 | O=C(Nc1cc(-c2cnc3ncc(Cl)n3c2)cc2c1C(c1cc(F)ccc1Cl)NC2=O)c1cc(F)cc(C(F)(F)F)c1 (stereo not shown) [Compound I-1934]
44 | ≤ 0.1 | O=C(Nc1cc(Cc2ccc3c(c2)CCNC3=O)cc2c1C(c1cc(F)ccc1Cl)NC2=O)c1cc(F)cc(C(F)(F)F)c1 (stereo not shown) [Compound I-1475]
45 | ≤ 0.1 | N#CC1CC(c2cc(NC(=O)c3cc(F)cc(C(F)(F)F)c3)c3c(c2)C(=O)NC3c2cc(F)ccc2Cl)C1 (stereo not shown) [Compound I-1175]
46 | 1 to 10 | O=C(Nc1cc(-c2ccn3ncnc3c2)cc2c1[C@@H](c1cc(F)ccc1Cl)NC2=O)c1cc(F)cc(C(F)(F)F)c1 (stereo in doubt) [Compound I-1596]
47 | 0.1 to 0.5 | O=C(Nc1cc(OC[C@H]2CCCN2)cc2c1C(c1cc(F)ccc1Cl)NC2=O)c1cc(F)cc(C(F)(F)F)c1 (mixture of isomers) [Compound I-1457]
48 | 1 to 10 | O=C1NC(c2cc(F)ccc2Cl)c2c(NC(=O)N3CCc4cc(OC(F)(F)F)ccc43)cccc21 (stereo not shown) [Compound I-2481]
49 | 10 to 100 | O=C1N[C@@H](c2cc(F)ccc2Cl)c2c(NC(=O)N3C[C@](O)(C(F)(F)F)c4cc(F)ccc43)cc(N3CCOC3=O)cc21 (single isomer, unassigned) [Compound I-2676]
50 | 0.1 to 0.5 | O=C(Nc1cc(-c2cn[nH]c2)nc2c1C(c1cc(F)ccc1Cl)NC2=O)c1cc(F)cc(Cl)c1 (stereo not shown) [Compound I-182]
51 | 1 to 10 | O=C1C[C@@H](c2cc(NC(=O)c3cc(F)cc(C(F)(F)F)c3)c3c(c2)C(=O)N[C@@H]3c2cc(F)ccc2Cl)CN1 (single isomer, unassigned) [Compound I-1712]
52 | 1 to 10 | O=C(Nc1cc(Br)cc2c(=O)[nH]n(-c3cc(F)ccc3Cl)c12)c1cc(F)cc(C(F)(F)F)c1 [Compound I-752]
53 | 10 to 100 | O=C1N[C@H](c2cc(F)ccc2Cl)c2c(NC(=O)N3C[C@@H](O)c4cccc(F)c43)cccc21 (single isomer, unassigned) [Compound I-2208]
54 | ≤ 0.1 | N#Cc1nc2ccc(-c3cc(NC(=O)c4cc(F)cc(C(F)(F)F)c4)c4c(c3)C(=O)NC4c3cc(F)ccc3Cl)cn2n1 (stereo not shown) [Compound I-1707]
55 | 1 to 10 | O=C1N[C@@H](c2cc(F)ccc2Cl)c2c(NC(=O)N3C[C@](O)(C(F)(F)F)c4cc(F)ccc43)cccc21 (single isomer, unassigned) [Compound I-2515]
56 | 1 to 10 | NS(=O)(=O)Cc1cc(NC(=O)c2cc(F)cc(C(F)(F)F)c2)c2c(c1)C(=O)N[C@@H]2c1cc(F)ccc1Cl [Compound I-1479]
57 | 1 to 10 | O=C1NC(c2cc(F)ccc2Cl)c2c(NC(=O)N3CCC4C3[C@@H]4C(F)(F)F)cccc21 (single isomer, unassigned) [Compound I-2329]
58 | ≤ 0.1 | O=C(Nc1cc(-c2ccnn2CCO)cc2c1C(c1cc(F)ccc1Cl)NC2=O)c1cc(F)cc(C(F)(F)F)c1 (stereo not shown) [Compound I-1340]
59 | 1 to 10 | O=C(Nc1cc(Br)cc2c1C(c1cc(F)ccc1Cl)NC2=O)c1cc(C(F)(F)F)cc(F)c1F (stereo not shown) [Compound I-908]
60 | ≤ 0.1 | O=C(Nc1cc(N[C@H]2C[C@H](O)C2)cc2c1C(c1cc(F)ccc1Cl)NC2=O)c1cc(F)cc(C(F)(F)F)c1 (single isomer, unassigned) [Compound I-609]
61 | ≤ 0.1 | O=C1NC(c2cc(F)ccc2C(F)F)c2c(NC(=O)c3nsc4ccccc34)cccc21 (stereo not shown) [Compound I-137]
